Measurements from the kinase profiling compilation of Christmann-Franck et al. (2016).

Legend:
Assay in all cases: KINOMEscan competition binding
Settings in all cases: compound 10.0 µM
GRK7 (human) = GRK7 (human) (UniProt Q8WTQ7)
DYRK2 (human) = DYRK2 (human) (UniProt Q92630)
MAPK13 (human) = MAPK13 (human) (UniProt O15264)
[1] = test system: KIT (human), P10721 [A829P]
CaMK1 (human) = CaMK1 (human) (UniProt Q14012)
STK32A (human) = STK32A (human) (UniProt Q8WU08)
CLK2 (human) = CLK2 (human) (UniProt P49760)
TAOK1 (human) = TAOK1 (human) (UniProt Q7L7X3)
TGFBR2 (human) = TGFBR2 (human) (UniProt P37173)
SLK (human) = SLK (human) (UniProt Q9H2G2)
CHEK2 (human) = CHEK2 (human) (UniProt O96017)
Sequence of CHEK2 (human) (O96017 whole entry, looked up): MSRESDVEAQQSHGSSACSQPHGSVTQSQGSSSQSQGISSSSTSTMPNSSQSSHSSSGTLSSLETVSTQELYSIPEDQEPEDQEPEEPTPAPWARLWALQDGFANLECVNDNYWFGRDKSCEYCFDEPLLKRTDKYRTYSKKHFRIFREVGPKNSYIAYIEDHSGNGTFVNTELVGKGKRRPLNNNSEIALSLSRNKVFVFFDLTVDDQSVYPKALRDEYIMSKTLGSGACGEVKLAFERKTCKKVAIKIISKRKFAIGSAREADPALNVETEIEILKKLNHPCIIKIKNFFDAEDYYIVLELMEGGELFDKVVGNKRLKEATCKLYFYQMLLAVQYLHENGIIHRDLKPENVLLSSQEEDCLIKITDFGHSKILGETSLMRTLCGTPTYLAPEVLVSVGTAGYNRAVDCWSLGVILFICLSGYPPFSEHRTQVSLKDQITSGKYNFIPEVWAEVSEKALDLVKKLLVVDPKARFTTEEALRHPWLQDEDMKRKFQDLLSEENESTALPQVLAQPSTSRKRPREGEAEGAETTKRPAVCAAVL

MYO3B (human) = MYO3B (human) (UniProt Q8WXR4)
Sequence of MYO3B (human) (Q8WXR4 whole entry, looked up): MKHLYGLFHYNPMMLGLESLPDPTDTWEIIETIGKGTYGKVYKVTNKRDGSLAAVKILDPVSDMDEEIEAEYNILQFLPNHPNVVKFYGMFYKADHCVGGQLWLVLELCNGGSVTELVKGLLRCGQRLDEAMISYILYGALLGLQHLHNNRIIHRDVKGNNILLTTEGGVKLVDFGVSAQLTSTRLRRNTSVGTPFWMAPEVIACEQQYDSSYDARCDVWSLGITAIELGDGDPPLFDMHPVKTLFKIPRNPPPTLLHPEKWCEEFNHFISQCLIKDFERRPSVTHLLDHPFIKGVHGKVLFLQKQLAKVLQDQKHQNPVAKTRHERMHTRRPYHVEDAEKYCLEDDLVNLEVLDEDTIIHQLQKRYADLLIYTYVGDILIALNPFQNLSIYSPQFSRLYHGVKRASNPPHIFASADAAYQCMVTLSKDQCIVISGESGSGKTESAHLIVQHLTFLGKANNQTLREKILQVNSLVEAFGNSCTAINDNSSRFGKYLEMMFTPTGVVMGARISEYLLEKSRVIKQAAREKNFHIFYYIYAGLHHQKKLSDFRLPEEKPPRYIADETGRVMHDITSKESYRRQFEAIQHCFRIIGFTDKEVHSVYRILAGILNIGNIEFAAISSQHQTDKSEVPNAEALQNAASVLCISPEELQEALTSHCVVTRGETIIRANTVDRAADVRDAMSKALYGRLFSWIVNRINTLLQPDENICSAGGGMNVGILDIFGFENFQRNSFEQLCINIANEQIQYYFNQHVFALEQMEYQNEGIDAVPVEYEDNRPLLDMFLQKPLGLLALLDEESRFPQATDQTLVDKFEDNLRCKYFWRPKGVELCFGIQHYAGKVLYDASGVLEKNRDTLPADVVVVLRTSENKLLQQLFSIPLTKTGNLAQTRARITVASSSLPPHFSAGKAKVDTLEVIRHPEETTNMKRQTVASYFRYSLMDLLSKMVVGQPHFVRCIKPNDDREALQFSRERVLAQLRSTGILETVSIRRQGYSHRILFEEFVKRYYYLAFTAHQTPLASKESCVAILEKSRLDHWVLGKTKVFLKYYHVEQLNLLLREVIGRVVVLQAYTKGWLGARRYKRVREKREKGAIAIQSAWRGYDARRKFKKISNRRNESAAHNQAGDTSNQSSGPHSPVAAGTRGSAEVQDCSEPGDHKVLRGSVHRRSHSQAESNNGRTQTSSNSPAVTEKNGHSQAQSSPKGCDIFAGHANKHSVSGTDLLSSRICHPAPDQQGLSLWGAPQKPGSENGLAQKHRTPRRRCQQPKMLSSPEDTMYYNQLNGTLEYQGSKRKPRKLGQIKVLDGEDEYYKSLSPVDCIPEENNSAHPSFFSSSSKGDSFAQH

[2] = test system: EGFR (human), P00533 [L858R]
CLK3 (human) = CLK3 (human) (UniProt P49761)
PRKCD (human) = PRKCD (human) (UniProt Q05655)
MAP4K5 (human) = MAP4K5 (human) (UniProt Q9Y4K4)
HIPK3 (human) = HIPK3 (human) (UniProt Q9H422)
TNIK (human) = TNIK (human) (UniProt Q9UKE5)
CASK (human) = CASK (human) (UniProt O14936)
STK38L (human) = STK38L (human) (UniProt Q9Y2H1)
PDPK1 (human) = PDPK1 (human) (UniProt O15530)
PTK6 (human) = PTK6 (human) (UniProt Q13882)
GRK4 (human) = GRK4 (human) (UniProt P32298)
OXSR1 (human) = OXSR1 (human) (UniProt O95747)
CDK11B (human) = CDK11B (human) (UniProt P21127)
FGFR2 (human) = FGFR2 (human) (UniProt P21802)
TGFBR1 (human) = TGFBR1 (human) (UniProt P36897)
MAPKAPK5 (human) = MAPKAPK5 (human) (UniProt Q8IW41)
SBK1 (human) = SBK1 (human) (UniProt Q52WX2)
IRAK4 (human) = IRAK4 (human) (UniProt Q9NWZ3)
PIP4K2B (human) = PIP4K2B (human) (UniProt P78356)
Sequence of PIP4K2B (human) (P78356 whole entry, looked up): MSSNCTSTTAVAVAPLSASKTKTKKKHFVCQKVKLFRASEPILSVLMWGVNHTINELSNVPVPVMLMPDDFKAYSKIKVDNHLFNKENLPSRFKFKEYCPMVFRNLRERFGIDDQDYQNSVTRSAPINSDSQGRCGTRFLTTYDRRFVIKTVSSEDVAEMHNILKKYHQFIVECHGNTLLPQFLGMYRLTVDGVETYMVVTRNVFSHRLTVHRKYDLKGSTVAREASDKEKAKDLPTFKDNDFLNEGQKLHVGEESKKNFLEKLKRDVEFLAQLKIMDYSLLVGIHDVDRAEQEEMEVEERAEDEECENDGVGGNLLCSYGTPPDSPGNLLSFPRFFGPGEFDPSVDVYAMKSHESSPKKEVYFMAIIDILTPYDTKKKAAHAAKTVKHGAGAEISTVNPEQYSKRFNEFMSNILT

CIT (human) = CIT (human) (UniProt O14578)
ERN1 (human) = ERN1 (human) (UniProt O75460)
Sequence of ERN1 (human) (O75460 whole entry, looked up): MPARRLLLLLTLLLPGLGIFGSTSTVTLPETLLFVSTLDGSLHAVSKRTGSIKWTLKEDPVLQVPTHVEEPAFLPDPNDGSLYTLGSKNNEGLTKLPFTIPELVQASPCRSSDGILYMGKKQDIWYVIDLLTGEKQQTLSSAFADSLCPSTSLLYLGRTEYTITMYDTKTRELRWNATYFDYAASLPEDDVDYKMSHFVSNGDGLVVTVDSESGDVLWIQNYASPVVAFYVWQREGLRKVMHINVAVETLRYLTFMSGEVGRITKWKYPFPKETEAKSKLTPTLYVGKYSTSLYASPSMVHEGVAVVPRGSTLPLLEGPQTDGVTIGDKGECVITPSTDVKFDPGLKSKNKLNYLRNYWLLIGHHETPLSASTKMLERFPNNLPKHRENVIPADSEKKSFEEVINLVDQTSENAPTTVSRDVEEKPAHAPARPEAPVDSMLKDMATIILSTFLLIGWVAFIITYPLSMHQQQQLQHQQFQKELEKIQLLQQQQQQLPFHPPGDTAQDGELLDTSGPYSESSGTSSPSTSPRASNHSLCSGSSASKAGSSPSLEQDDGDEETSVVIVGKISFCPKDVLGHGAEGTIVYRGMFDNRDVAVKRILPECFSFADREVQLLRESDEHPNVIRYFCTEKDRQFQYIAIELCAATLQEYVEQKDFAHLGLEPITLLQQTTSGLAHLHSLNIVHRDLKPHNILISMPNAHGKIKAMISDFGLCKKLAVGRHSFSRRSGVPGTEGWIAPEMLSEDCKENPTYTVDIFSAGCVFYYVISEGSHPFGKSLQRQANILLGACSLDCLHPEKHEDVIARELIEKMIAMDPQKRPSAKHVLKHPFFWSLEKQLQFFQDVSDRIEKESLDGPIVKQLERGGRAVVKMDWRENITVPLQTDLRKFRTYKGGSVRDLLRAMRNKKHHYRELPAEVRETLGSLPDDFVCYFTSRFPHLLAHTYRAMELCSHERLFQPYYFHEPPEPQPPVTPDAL

CAMKK2 (human) = CAMKK2 (human) (UniProt Q96RR4)
HCK (human) = HCK (human) (UniProt P08631)
LATS2 (human) = LATS2 (human) (UniProt Q9NRM7)
CAMK2B (human) = CAMK2B (human) (UniProt Q13554)
DCLK1 (human) = DCLK1 (human) (UniProt O15075)
PIP5K1A (human) = PIP5K1A (human) (UniProt Q99755)
Sequence of PIP5K1A (human) (Q99755 whole entry, looked up): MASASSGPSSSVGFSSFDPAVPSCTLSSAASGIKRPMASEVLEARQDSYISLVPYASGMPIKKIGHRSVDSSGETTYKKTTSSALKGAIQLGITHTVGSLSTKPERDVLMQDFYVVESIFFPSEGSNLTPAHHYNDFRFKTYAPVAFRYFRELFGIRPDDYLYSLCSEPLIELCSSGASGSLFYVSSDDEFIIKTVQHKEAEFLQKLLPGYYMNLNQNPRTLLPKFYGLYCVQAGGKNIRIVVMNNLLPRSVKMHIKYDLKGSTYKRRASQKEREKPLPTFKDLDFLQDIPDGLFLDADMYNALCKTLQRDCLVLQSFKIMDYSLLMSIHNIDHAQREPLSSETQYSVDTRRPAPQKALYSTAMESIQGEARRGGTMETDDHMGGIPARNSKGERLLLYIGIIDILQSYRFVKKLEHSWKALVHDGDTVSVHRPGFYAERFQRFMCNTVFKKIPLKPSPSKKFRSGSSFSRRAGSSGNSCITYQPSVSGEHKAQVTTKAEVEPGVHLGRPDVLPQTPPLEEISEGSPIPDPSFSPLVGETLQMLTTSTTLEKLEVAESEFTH

[3] = test system: LRRK2 (human), Q5S007 [G2019S]

Sequence of GRK7 (human) (Q8WTQ7 whole entry, looked up): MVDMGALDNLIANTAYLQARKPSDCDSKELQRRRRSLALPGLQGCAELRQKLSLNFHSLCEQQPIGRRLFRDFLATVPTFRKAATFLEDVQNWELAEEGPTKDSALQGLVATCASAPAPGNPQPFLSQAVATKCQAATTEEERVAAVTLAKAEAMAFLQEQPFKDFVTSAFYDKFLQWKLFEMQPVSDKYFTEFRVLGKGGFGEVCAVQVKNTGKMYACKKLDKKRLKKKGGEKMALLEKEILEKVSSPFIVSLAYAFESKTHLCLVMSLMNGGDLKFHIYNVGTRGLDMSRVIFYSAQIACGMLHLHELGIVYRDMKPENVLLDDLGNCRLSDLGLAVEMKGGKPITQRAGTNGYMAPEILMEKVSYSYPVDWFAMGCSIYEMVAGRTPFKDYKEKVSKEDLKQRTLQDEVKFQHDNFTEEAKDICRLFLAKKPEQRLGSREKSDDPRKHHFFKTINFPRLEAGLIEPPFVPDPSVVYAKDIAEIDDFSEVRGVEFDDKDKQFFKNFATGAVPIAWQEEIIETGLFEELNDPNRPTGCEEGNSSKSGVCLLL
Sequence of STK32A (human) (Q8WU08 whole entry, looked up): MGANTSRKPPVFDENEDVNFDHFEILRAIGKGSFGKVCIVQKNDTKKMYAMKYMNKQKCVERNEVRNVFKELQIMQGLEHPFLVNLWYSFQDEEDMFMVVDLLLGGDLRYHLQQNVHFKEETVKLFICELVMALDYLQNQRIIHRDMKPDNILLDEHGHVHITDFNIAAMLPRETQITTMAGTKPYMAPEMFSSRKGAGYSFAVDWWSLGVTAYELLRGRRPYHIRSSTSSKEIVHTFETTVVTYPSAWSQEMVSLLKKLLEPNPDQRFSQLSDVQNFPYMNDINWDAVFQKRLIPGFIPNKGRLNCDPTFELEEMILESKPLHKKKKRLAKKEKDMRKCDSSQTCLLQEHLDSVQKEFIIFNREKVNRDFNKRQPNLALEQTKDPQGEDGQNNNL

Q: N#Cc1cc(-c2ccnc(Nc3ccc(-n4cnc(-c5cccnc5)n4)cc3)n2)cc(N2CCOCC2)c1 was tested. Which kinase still bound, per cent of control (GRK7 (human)) did it give?
A: 70%

Q: What about the kinase still bound, per cent of control (DYRK2 (human)) of the same molecule?
A: 39%

Q: And the kinase still bound, per cent of control (MAPK13 (human))?
A: 61%

Q: What about the kinase still bound, per cent of control [1] of the same molecule?
A: 51%

Q: What about the kinase still bound, per cent of control (CaMK1 (human)) of the same molecule?
A: 83%

Q: What about the kinase still bound, per cent of control (STK32A (human)) of the same molecule?
A: 100%

Q: And the kinase still bound, per cent of control (CLK2 (human))?
A: 15%

Q: And the kinase still bound, per cent of control (TAOK1 (human))?
A: 20%

Q: What about the kinase still bound, per cent of control (TGFBR2 (human)) of the same molecule?
A: 100%

Q: And the kinase still bound, per cent of control (SLK (human))?
A: 10%

Q: What about the kinase still bound, per cent of control (CHEK2 (human)) of the same molecule?
A: 100%

Q: What about the kinase still bound, per cent of control (MYO3B (human)) of the same molecule?
A: 100%

Q: And the kinase still bound, per cent of control [2]?
A: 54%

Q: And the kinase still bound, per cent of control (CLK3 (human))?
A: 59%

Q: What about the kinase still bound, per cent of control (PRKCD (human)) of the same molecule?
A: 65%

Q: And the kinase still bound, per cent of control (MAP4K5 (human))?
A: 27%

Q: And the kinase still bound, per cent of control (HIPK3 (human))?
A: 5.5%

Q: And the kinase still bound, per cent of control (TNIK (human))?
A: 26%

Q: What about the kinase still bound, per cent of control (CASK (human)) of the same molecule?
A: 78%

Q: And the kinase still bound, per cent of control (STK38L (human))?
A: 100%

Q: What about the kinase still bound, per cent of control (PDPK1 (human)) of the same molecule?
A: 100%

Q: And the kinase still bound, per cent of control (PTK6 (human))?
A: 100%

Q: And the kinase still bound, per cent of control (GRK4 (human))?
A: 37%

Q: What about the kinase still bound, per cent of control (OXSR1 (human)) of the same molecule?
A: 96%

Q: What about the kinase still bound, per cent of control (CDK11B (human)) of the same molecule?
A: 32%

Q: What about the kinase still bound, per cent of control (FGFR2 (human)) of the same molecule?
A: 91%

Q: What about the kinase still bound, per cent of control (TGFBR1 (human)) of the same molecule?
A: 73%

Q: And the kinase still bound, per cent of control (MAPKAPK5 (human))?
A: 100%

Q: What about the kinase still bound, per cent of control (SBK1 (human)) of the same molecule?
A: 100%

Q: And the kinase still bound, per cent of control (IRAK4 (human))?
A: 100%

Q: And the kinase still bound, per cent of control (PIP4K2B (human))?
A: 6.9%

Q: And the kinase still bound, per cent of control (CIT (human))?
A: 0.9%

Q: And the kinase still bound, per cent of control (ERN1 (human))?
A: 54%

Q: What about the kinase still bound, per cent of control (CAMKK2 (human)) of the same molecule?
A: 52%

Q: What about the kinase still bound, per cent of control (HCK (human)) of the same molecule?
A: 100%

Q: What about the kinase still bound, per cent of control (LATS2 (human)) of the same molecule?
A: 62%

Q: What about the kinase still bound, per cent of control (CAMK2B (human)) of the same molecule?
A: 37%

Q: And the kinase still bound, per cent of control (DCLK1 (human))?
A: 100%

Q: What about the kinase still bound, per cent of control (PIP5K1A (human)) of the same molecule?
A: 17%

Q: And the kinase still bound, per cent of control [3]?
A: 53%

Q: For CNC(=O)Nc1ccc(-c2nc(N3CC4CCC(C3)O4)c3cnn(C4CCC5(CC4)OCCO5)c3n2)cc1, which kinase still bound, per cent of control (GRK7 (human)) is on record?
A: 91%

Q: And the kinase still bound, per cent of control (DYRK2 (human))?
A: 90%

Q: What about the kinase still bound, per cent of control (MAPK13 (human)) of the same molecule?
A: 16%

Q: And the kinase still bound, per cent of control [1]?
A: 89%

Q: And the kinase still bound, per cent of control (CaMK1 (human))?
A: 93%

Q: And the kinase still bound, per cent of control (STK32A (human))?
A: 99%

Q: And the kinase still bound, per cent of control (CLK2 (human))?
A: 98%

Q: And the kinase still bound, per cent of control (TAOK1 (human))?
A: 100%

Q: And the kinase still bound, per cent of control (TGFBR2 (human))?
A: 100%

Q: What about the kinase still bound, per cent of control (SLK (human)) of the same molecule?
A: 100%

Q: What about the kinase still bound, per cent of control (CHEK2 (human)) of the same molecule?
A: 84%

Q: What about the kinase still bound, per cent of control (MYO3B (human)) of the same molecule?
A: 91%

Q: And the kinase still bound, per cent of control [2]?
A: 53%

Q: And the kinase still bound, per cent of control (CLK3 (human))?
A: 31%

Q: And the kinase still bound, per cent of control (PRKCD (human))?
A: 100%

Q: And the kinase still bound, per cent of control (MAP4K5 (human))?
A: 83%

Q: And the kinase still bound, per cent of control (HIPK3 (human))?
A: 42%

Q: And the kinase still bound, per cent of control (TNIK (human))?
A: 100%

Q: And the kinase still bound, per cent of control (CASK (human))?
A: 64%

Q: What about the kinase still bound, per cent of control (STK38L (human)) of the same molecule?
A: 100%

Q: And the kinase still bound, per cent of control (PDPK1 (human))?
A: 76%

Q: What about the kinase still bound, per cent of control (PTK6 (human)) of the same molecule?
A: 55%

Q: What about the kinase still bound, per cent of control (GRK4 (human)) of the same molecule?
A: 100%

Q: And the kinase still bound, per cent of control (OXSR1 (human))?
A: 100%

Q: What about the kinase still bound, per cent of control (CDK11B (human)) of the same molecule?
A: 100%

Q: What about the kinase still bound, per cent of control (FGFR2 (human)) of the same molecule?
A: 92%

Q: And the kinase still bound, per cent of control (TGFBR1 (human))?
A: 100%

Q: What about the kinase still bound, per cent of control (MAPKAPK5 (human)) of the same molecule?
A: 100%

Q: And the kinase still bound, per cent of control (SBK1 (human))?
A: 100%

Q: What about the kinase still bound, per cent of control (IRAK4 (human)) of the same molecule?
A: 100%

Q: And the kinase still bound, per cent of control (PIP4K2B (human))?
A: 100%

Q: And the kinase still bound, per cent of control (CIT (human))?
A: 100%

Q: And the kinase still bound, per cent of control (ERN1 (human))?
A: 93%

Q: And the kinase still bound, per cent of control (CAMKK2 (human))?
A: 100%

Q: And the kinase still bound, per cent of control (HCK (human))?
A: 100%

Q: What about the kinase still bound, per cent of control (LATS2 (human)) of the same molecule?
A: 76%

Q: What about the kinase still bound, per cent of control (CAMK2B (human)) of the same molecule?
A: 100%

Q: And the kinase still bound, per cent of control (DCLK1 (human))?
A: 100%

Q: And the kinase still bound, per cent of control (PIP5K1A (human))?
A: 84%

Q: And the kinase still bound, per cent of control [3]?
A: 65%

Q: N#C/C(=C1/Nc2ccccc2S1)c1ccnc(NCCc2cccnc2)n1 was tested. Which kinase still bound, per cent of control (GRK7 (human)) did it give?
A: 47%

Q: What about the kinase still bound, per cent of control (DYRK2 (human)) of the same molecule?
A: 0.7%

Q: What about the kinase still bound, per cent of control (MAPK13 (human)) of the same molecule?
A: 51%

Q: And the kinase still bound, per cent of control [1]?
A: 73%

Q: What about the kinase still bound, per cent of control (CaMK1 (human)) of the same molecule?
A: 73%

Q: What about the kinase still bound, per cent of control (STK32A (human)) of the same molecule?
A: 100%

Q: What about the kinase still bound, per cent of control (CLK2 (human)) of the same molecule?
A: 3.7%

Q: What about the kinase still bound, per cent of control (TAOK1 (human)) of the same molecule?
A: 38%

Q: And the kinase still bound, per cent of control (TGFBR2 (human))?
A: 100%

Q: What about the kinase still bound, per cent of control (SLK (human)) of the same molecule?
A: 100%

Q: What about the kinase still bound, per cent of control (CHEK2 (human)) of the same molecule?
A: 94%

Q: And the kinase still bound, per cent of control (MYO3B (human))?
A: 100%

Q: What about the kinase still bound, per cent of control (CLK3 (human)) of the same molecule?
A: 76%

Q: And the kinase still bound, per cent of control (PRKCD (human))?
A: 100%

Q: And the kinase still bound, per cent of control (MAP4K5 (human))?
A: 94%

Q: What about the kinase still bound, per cent of control (HIPK3 (human)) of the same molecule?
A: 0.25%

Q: What about the kinase still bound, per cent of control (TNIK (human)) of the same molecule?
A: 70%

Q: What about the kinase still bound, per cent of control (CASK (human)) of the same molecule?
A: 100%

Q: What about the kinase still bound, per cent of control (STK38L (human)) of the same molecule?
A: 100%

Q: What about the kinase still bound, per cent of control (PDPK1 (human)) of the same molecule?
A: 100%

Q: And the kinase still bound, per cent of control (PTK6 (human))?
A: 59%

Q: What about the kinase still bound, per cent of control (GRK4 (human)) of the same molecule?
A: 32%

Q: What about the kinase still bound, per cent of control (OXSR1 (human)) of the same molecule?
A: 62%

Q: And the kinase still bound, per cent of control (CDK11B (human))?
A: 96%

Q: What about the kinase still bound, per cent of control (FGFR2 (human)) of the same molecule?
A: 100%

Q: And the kinase still bound, per cent of control (TGFBR1 (human))?
A: 100%

Q: And the kinase still bound, per cent of control (MAPKAPK5 (human))?
A: 100%

Q: What about the kinase still bound, per cent of control (SBK1 (human)) of the same molecule?
A: 94%

Q: And the kinase still bound, per cent of control (IRAK4 (human))?
A: 48%

Q: And the kinase still bound, per cent of control (PIP4K2B (human))?
A: 26%

Q: What about the kinase still bound, per cent of control (CIT (human)) of the same molecule?
A: 59%

Q: What about the kinase still bound, per cent of control (ERN1 (human)) of the same molecule?
A: 79%

Q: And the kinase still bound, per cent of control (CAMKK2 (human))?
A: 54%

Q: What about the kinase still bound, per cent of control (HCK (human)) of the same molecule?
A: 100%

Q: And the kinase still bound, per cent of control (LATS2 (human))?
A: 92%

Q: What about the kinase still bound, per cent of control (CAMK2B (human)) of the same molecule?
A: 49%

Q: What about the kinase still bound, per cent of control (DCLK1 (human)) of the same molecule?
A: 78%

Q: What about the kinase still bound, per cent of control (PIP5K1A (human)) of the same molecule?
A: 18%

Q: What about the kinase still bound, per cent of control [3] of the same molecule?
A: 74%
